In patent US9862746B2, “Compositions and methods relating to hindering DOT1L recruitment by MLL-fusion proteins” (The Regents of the University of Michigan, priority 2013, dated 2018):
Each block holds one molecule with its values, some of them ahead of it. Where a SMILES comes first, the peptide text is derived from it.

Legend:
[1] = target: T1, ENL (Homo sapiens, UniProt Q03111); assay: SPR competitive binding assay of small molecules, ENL; conditions: SPR competitive based assay; read-out: ENL IC50 ± SD
T1 construct: against AF9(497-568) and ENL (489-559) proteins running different tested concentrations over CM5 chip; MBP (pMSCG9-LIC vector); made in house; host or cells: Escherichia coli BL21 (DE3)
T1 sequence (Q03111 489-559): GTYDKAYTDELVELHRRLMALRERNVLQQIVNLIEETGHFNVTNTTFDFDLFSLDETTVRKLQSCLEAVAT
Text: (§1) To further validate the binding of the confirmed compounds and identify potential promiscuous inhibitors, several secondary assays have been developed to support hit confirmation and the hit-to-probe optimization process. In order to determine that the compounds bind effectively to the target and disrupt protein-protein interaction, a SPR competitive binding assay was used. This assay uses a platform that differs from the FP-based assay where DOT1L recombinant protein (residues […]) is immobilized on a CM5 chip, allowing for testing of the inhibitors for their ability to disrupt AF9-DOT1L protein-protein interactions.
This class of compounds was also tested for their binding against ENL protein, which is highly homologous with AF9.

[2] = target: T2, AF9 (Homo sapiens, UniProt P42568); assay: SPR competitive binding assay of small molecules, AF9-DOT1L; set-up: against AF9(497-568) and ENL (489-559) proteins running different tested concentrations over CM5 chip; GB1 (pGB1-LIC vector); made in house; host or cells: Escherichia coli BL21 (DE3)
T2 sequence (P42568 497-568): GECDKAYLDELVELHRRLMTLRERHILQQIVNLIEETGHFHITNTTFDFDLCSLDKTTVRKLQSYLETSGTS
Text: Several secondary assays have already been developed to support hit confirmation and the hit-to-probe optimization process. The established and optimized SPR-based competitive assay utilizing DOT1L protein (826-1095) immobilized on the CM5 sensor chip was used as a secondary counter screen assay to validate binding of compounds to AF9. […] Both assays gave similar IC50 values.
as §1

[3] = target: T3, ENL (489-559) (Homo sapiens, UniProt Q03111); assay: SPR binding of ENL to immobilized DOT1L constructs; conditions: DOT1L construct immobilized on CM5 sensor chip, read-out: ENL (489-559) Kd ± SD
T3 construct: ENL protein (residues 489-559); MBP (pMSCG9-LIC vector); made in house; host or cells: Escherichia coli BL21 (DE3)
T3 sequence (Q03111 489-559): T1 sequence (Q03111 489-559)
Text: (§2) AF9 and ENL are two of the most common MLL fusion proteins (see, e.g., Daser A, Rabbitts T H (2004) Genes & development 18: 965-974) and belong to the YEATS protein family (see, e.g., Schulze J M, et al., (2009) Biochem Cell Biol 87: 65-75). Both of these two proteins consist of N-terminal YEATS domain and a C-terminal hydrophobic domain (see, e.g., Zhang W, et al., (2007) J Clin Invest 117: 773-783). AF9 and ENL shared high homology in the C-terminal domain and it had been shown that through this domain AF9/ENL are involved in the PPI which is crucial for MLL leukemia transformation (see, e.g., Dobson C L, et al., (1999) Embo J 18: 3564-3574; Mueller D, et al., (2007) Blood 110: 4445-4454; Yokoyama A, et al., (2010) Cancer cell 17: 198-212). The interaction of AF9 or ENL with DOT1L has been reported previously by co-immunoprecipitation and yeast 2-hybrid studies (see, e.g., Biswas D, et al., (2011) PNAS 108: 15751-15756; Yokoyama A, et al., (2010) Cancer cell 17: 198-212; Zhang W, et al., (2006) J Biol Chem 281: 18059-18068; Zhang W, et al., (2007) J Clin Invest 117: 773-783; Mueller D, et al., (2007) Blood 110: 4445-4454). However, there is a lack of detailed biochemical and biophysical characterization of this interaction. To understand the molecular basis of DOT1L interaction with MLL-fusion proteins, these PPIs were analyzed using surface plasma resonance (SPR). An SPR assay was developed to quantify the binding affinity between full length DOT1L protein and MLL-fusion proteins. For that purpose, the flag-tagged full length DOT1L protein was transiently transfected in HEK 293 cells and after 48 hours transfection the flag-tagged DOT1L protein was captured from the HEK 293 whole cell lysate on an anti-flag antibody-coated biosensor chip (FIG. 1B and FIG. 14). The recombinant C-terminal domain from human AF9 (residues 497-568) and the corresponding segment from ENL protein (residues 489-559) were cloned, expressed and purified for the biochemical binding studies (FIG. 1A). […] For the first time these studies quantitatively determined the binding affinity of DOT1L to AF9 and ENL and confirmed that DOT1L directly interacts with AF9 and ENL and has about six folds higher affinity against AF9 in comparison with ENL.
(§3) Surface Plasmon Resonance (SPR) binding studies—All SPR based experiments were performed on a BIAcore 2000 (BIAcore, GE Healthcare) instrument. Different tested DOT1L recombinant proteins were immobilized on a CM5 sensor chip by standard EDC/NHS coupling chemistry followed by ethanolamine deactivation of the surfaces. For immobilization of full length Flag-DOT1L protein, anti-Flag antibody (Sigma, Anti-FLAG M2) was immobilized on CM5 chip by the same amine coupling chemistry. HEK293 whole cells lysate with overexpressed Flag-DOT1L at 2.4 μg/l total protein concentration was injected over the Flag antibody surface, followed by injecting of AF9 and ENL in different concentrations. […] The Fcl surface was used as a control surface and was treated in the same manner as the active surfaces but in the absence of immobilized protein. Binding parameters, kon, koff and Kd were calculated by simultaneous non-linear regression using BIAEvaluation software.

[4] = target: T4, AF9 (497-568) (Homo sapiens, UniProt P42568); assay: SPR binding of AF9 to immobilized DOT1L constructs; conditions: DOT1L construct immobilized on CM5 sensor chip, read-out: AF9 (497-568) Kd ± SD
T4 construct: human AF9 (residues 497-568); GB1 (pGB1-LIC vector); made in house; host or cells: Escherichia coli BL21 (DE3)
T4 sequence (P42568 497-568): T2 sequence (P42568 497-568)
Text: as §2, §3

[5] = target: T1, ENL; assay: Solution competitive SPR assay of peptides, ENL-DOT1L interaction; assay type: binding; conditions: CM5 chip with immobilized DOT1L protein, read-out: IC50 ± SD ENL
Experimental: (§4) Solution competitive SPR based assay was performed to determine the IC50 values of DOT1L peptides. […] Response units (RU) were measured at 15 seconds in the dissociation phase and the specific binding was calculated by subtracting the control surface (Fcl) signal from the surfaces with immobilized Mocr-DOT1L. IC50 values were determined by non-linear least squares analysis using Graph Pad Prism 5.0 software.

[6] = target: T2, AF9; assay: Optimized competitive FP binding assay (N-Flu-DOT1L / AF9); set-up: the recombinant GB1-AF9 protein (residues 497-568); made in house; host or cells: Escherichia coli BL21 (DE3)
[7] = target: T2, AF9; assay: Solution competitive SPR assay of peptides, AF9-DOT1L interaction; assay type: binding; set-up: against AF9(497-568) and ENL (489-559) proteins running different tested concentrations over CM5 chip; GB1 (pGB1-LIC vector); made in house; host or cells: Escherichia coli BL21 (DE3); conditions: CM5 chip with immobilized DOT1L protein, read-out: IC50 ± SD AF9
Experimental: as §4

[8] = SPR competitive based assay, read-out: AF9 IC50 ± SD
[9] = SPR competitive, read-out: IC50, inhibition of AF9-DOT1L interaction

Molecule: Cc1ccc(C)c(S(=O)(=O)N2c3ccccc3NC3=C(C(=O)CCC3)C2c2cccs2)c1 (stereo not shown) [Compound 52]
IC50 [1]: 25100 ± 2500 nM
IC50 [2, 8]: 43100 ± 800 nM

Molecule: O=c1c(O)cccc2cc(O)c(O)c(O)c12 [CCG-38505]
IC50 [2, 9]: 5720 nM

Molecule: CC[C@H](C)[C@H](NC(=O)[C@H](CO)NC(=O)[C@H](C)NC(=O)[C@@H]1CCCN1C(=O)[C@H](CC(C)C)NC(C)=O)C(=O)N1CCC[C@H]1C(=O)N[C@@H](CC(C)C)C(=O)N[C@@H](CO)C(=O)N[C@H](C(=O)N[C@H](C(N)=O)C(C)C)[C@@H](C)O [Compound I867A] (Ac-LPASIPLSTV-NH2)
IC50 [5]: > 200000 nM

Molecule: Cc1ccc(S(=O)(=O)N2c3ccccc3NC3=C(C(=O)CC(C)(C)C3)C2c2ccco2)cc1 (stereo not shown) [Compound 41]
IC50 [1]: 33200 ± 8700 nM
IC50 [2, 8]: 46400 ± 12400 nM

Molecule: CC[C@H](C)[C@H](NC(=O)[C@@H]1CCCN1C(=O)[C@H](CC(C)C)NC(C)=O)C(=O)N[C@@H](CO)C(=O)N[C@H](C(=O)N1CCC[C@H]1C(=O)N[C@@H](CC(C)C)C(=O)N[C@@H](CO)C(=O)N[C@@H](C)C(=O)N[C@H](C(N)=O)C(C)C)[C@@H](C)CC [Compound T873A] (Ac-LPISIPLSAV-NH2)
Ki [6]: 203 nM

Molecule: CC1(C)CC(=O)C2=C(C1)Nc1ccccc1N(S(C)(=O)=O)C2c1cccs1 (stereo not shown) [Compound 51]
IC50 [1]: > 200000 nM
IC50 [2, 8]: > 200000 nM
IC50 [2, 9]: > 200000 nM

Molecule: O=C(c1cc(O)c(O)c(O)c1)c1ccc(O)c(O)c1O [CCG-208095]
IC50 [2, 9]: 6270 nM

Molecule: CC[C@H](C)[C@H](NC(=O)[C@@H]1CCCN1C(=O)[C@H](CC(C)C)NC(C)=O)C(=O)N[C@@H](CO)C(=O)N[C@@H](C)C(=O)N1CCC[C@H]1C(=O)N[C@@H](CC(C)C)C(=O)N[C@@H](CO)C(=O)N[C@H](C(=O)N[C@H](C(N)=O)C(C)C)[C@@H](C)O [Compound I869A] (Ac-LPISAPLSTV-NH2)
IC50 [5]: > 200000 nM
IC50 [7]: > 200000 nM
Ki [6]: > 100000 nM

Further lines, results first:

Kd [3]: 206 ± 80 nM
Kd [4]: 33 ± 4 nM
Molecule: DOT1L (1-1537): Flag-tagged full length human DOT1L protein

Kd [3]: 238 nM
Kd [4]: 111 nM
B1: DOT1L (826-1095): recombinant DOT1L construct (protein)
chain: SPQDPRPLSPGALQLAGEKSSEKGLRERAYGSSGELITSLPISIPLSTVQPNKLPVSIPLASVVLPSRAERARSTPSPVLQPRDPSSTLEKQIGANAHGAGSRSLALAPAGFSYAGSVAISGALAGSPASLTPGAEPATLDESSSSGSLFATVGSRSSTPQHPLLLAQPRNSLPASPAHQLSSSPRLGGAAQGPLPEASKGDLPSDSGFSDPESEAKRRIVFTITTGAGSAKQSPSSKHSPLTASARGDCVPSHGQDSRRRGRRKRASAG

Kd [3]: 90 nM
Kd [4]: 42 nM
B2: DOT1L (854-925): recombinant truncated DOT1L construct, 72 amino acids (protein)
chain: AYGSSGELITSLPISIPLSTVQPNKLPVSIPLASVVLPSRAERARSTPSPVLQPRDPSSTLEKQIGANAHGA

Kd [3]: 122 ± 16 nM
Kd [4]: 92 ± 8 nM
B3: DOT1L (826-958): recombinant truncated DOT1L construct (protein)
chain: SPQDPRPLSPGALQLAGEKSSEKGLRERAYGSSGELITSLPISIPLSTVQPNKLPVSIPLASVVLPSRAERARSTPSPVLQPRDPSSTLEKQIGANAHGAGSRSLALAPAGFSYAGSVAISGALAGSPASLTP

Kd [3]: 81 ± 6 nM
Kd [4]: 78 ± 15 nM
B4: DOT1L (826-937): recombinant truncated DOT1L construct (protein)
chain: SPQDPRPLSPGALQLAGEKSSEKGLRERAYGSSGELITSLPISIPLSTVQPNKLPVSIPLASVVLPSRAERARSTPSPVLQPRDPSSTLEKQIGANAHGAGSRSLALAPAGF

Kd [3]: 148 ± 14 nM
Kd [4]: 135 ± 4 nM
B5: DOT1L (854-1095): recombinant truncated DOT1L construct (protein)
chain: AYGSSGELITSLPISIPLSTVQPNKLPVSIPLASVVLPSRAERARSTPSPVLQPRDPSSTLEKQIGANAHGAGSRSLALAPAGFSYAGSVAISGALAGSPASLTPGAEPATLDESSSSGSLFATVGSRSSTPQHPLLLAQPRNSLPASPAHQLSSSPRLGGAAQGPLPEASKGDLPSDSGFSDPESEAKRRIVFTITTGAGSAKQSPSSKHSPLTASARGDCVPSHGQDSRRRGRRKRASAG

Kd [3]: 6220 nM
Kd [4]: 1820 nM
B6: DOT1L (925-1095): recombinant truncated DOT1L construct (protein)
chain: AGSRSLALAPAGFSYAGSVAISGALAGSPASLTPGAEPATLDESSSSGSLFATVGSRSSTPQHPLLLAQPRNSLPASPAHQLSSSPRLGGAAQGPLPEASKGDLPSDSGFSDPESEAKRRIVFTITTGAGSAKQSPSSKHSPLTASARGDCVPSHGQDSRRRGRRKRASAG
